{"source": "patent US6673566B1", "about": "(priority 2002, dated 2004)", "key": {"[1]": {"system": "white-tailed deer adherent peripheral blood mononuclear cells", "experiment": "Nitrite production (Griess reaction) by white-tailed deer monocyte-derived macrophages stimulated with M. haemolytica LPS", "format": "cell-based", "conditions": "cells stimulated with LPS in the presence of L-NMMA (1.15 mM)", "experimental": "Monocytes were isolated from buffy coat fractions of peripheral blood of non-infected deer by adherence in 25 cm^2 flasks at 37° C. for 1 hr. Cells were cultured for 2 wk at 37° C. with 5% CO2 in RPMI 1640 (Gibco, Invitrogen Life Technologies, Frederick, Md., USA) supplemented with L-glutamine, penicillin, streptomycin, 2-ME, 10% heat-inactivated fetal calf serum, and 10% heat-inactivated white-tailed deer serum. Medium was changed every 3-4 days during the culture period. […]\nNitrite is the stable oxidation product of NO and the amount of nitrite within culture supernatants is indicative of the amount of NO produced by cells in culture. Nitrite was measured using the Griess reaction (Rajaraman et al., 1998, Effect of vitamins A and E on nitric oxide production by blood mononuclear leukocytes from neonatal calves fed milk replacer, Journal of Dairy Science, 81:3,278-3,285) performed in 96-well microtiter plates (Immunolon 2, Dynatech Laboratories, Inc., Chantilly, Va., USA). […] Absorbencies of test and standard samples at 550 nm were measured using an automated ELISA plate reader (Molecular Devices, Menlo Park, Calif., USA). […]\nData were analyzed by one-way analysis of variance followed by Tukey-Kramer multiple comparisons test. […]"}, "[2]": {"system": "PBMC from Mycobacterium bovis-infected white-tailed deer", "format": "cell-based"}}, "note": "“Also recorded” adds a separate entry of the source."}
{"smiles": "CNC(=N)NCCC[C@H](N)C(=O)O", "note": "[L-NMMA, N^G-monomethyl-L-arginine]", "values": [{"measurement": "Nitrite levels versus non-stimulated cultures", "setting": "[1]", "value": "did not differ"}, {"measurement": "Effect of L-NMMA on antigen-stimulated nitrite production", "setting": "[2]", "value": "inhibited; also recorded: ablated this response; also recorded: abrogated"}]}
